From patent US8288393B2, “Nitrogen-containing heterocyclic compound and pest control agent” (Nippon Soda Co., Ltd., priority 2007, dated 2012)

Columns and labels:
[1] = tested on: Tetranychus urticae resistant to organic phosphorous agents; experiment: Efficacy against Tetranychus urticae (spray on kidney bean plants); assay type: in vivo; details: 125 ppm wettable powder sprayed on kidney bean plants, female adults, 25° C., 3 days later
Source text: After inoculating the first true leaves of kidney bean plants planted in a no. 3 pot for which 7 to 10 days had elapsed since germination with female adult Tetranychus urticae resistant to organic phosphorous agents, a chemical liquid diluted with water to a compound concentration of 125 ppm was sprayed onto the kidney bean plants in accordance with the formula of the wettable powder indicated in the aforementioned Preparation Example 1. The kidney bean plants were placed in a constant temperature chamber at a temperature of 25° C. and humidity of 65% and insect mortality rate was investigated 3 days later. The test was repeated twice.

Pseudaletia separata = experiment: Efficacy against Pseudaletia separata (corn leaf dip); assay type: in vivo; details: 125 ppm wettable powder, corn leaves immersed, 2nd instar larvae, 25° C., 5 days later
Description: (§1) The wettable powder indicated in the aforementioned Preparation Example 1 was diluted with water to a compound concentration of 125 ppm in accordance with the formula thereof. After immersing corn leaves in the chemical liquid for 30 seconds and allowing to air dry, the corn leaves were placed in a Petri dish lined with filter paper and inoculated with five 2nd instar Pseudaletia separata larvae. A glass cover was placed over the Petri dish, the dish was placed in a constant temperature chamber at a temperature of 25° C. and humidity of 65%, and viability was investigated 5 days later followed by determination of insect mortality rate. The test was repeated twice.

Spodoptera litura = experiment: Efficacy against Spodoptera litura (cabbage leaf dip); assay type: in vivo; details: 125 ppm emulsion, cabbage leaves immersed, 2nd instar larvae, 25° C., 5 days later
Description: as §1, with “The emulsion” for “The wettable powder”, “Example 2” for “Example 1”, “immersing cabbage” for “immersing corn”, “the cabbage” for “the corn”, “instar Spodoptera litura” for “instar Pseudaletia separata”

Aphis gossypii = experiment: Efficacy against Aphis gossypii (spray on infested cucumber plants); assay type: in vivo; details: 125 ppm emulsion sprayed on cucumber plants infested with nymphs, 25° C., 5 days later
Source text: Cucumber plants planted in a no. 3 pot for which 10 days had elapsed since germination were inoculated with adult Aphis gossypii. The adult insects were removed after 1 day, and a chemical liquid diluted with water to a compound concentration of 125 ppm was sprayed onto the cucumber plants infested with nymphs laid by the adults in accordance with the emulsion formula indicated in the aforementioned Preparation Example 2. The cucumber plants were placed in a constant temperature chamber at a temperature of 25° C. and humidity of 65% and insect viability was investigated 5 days later followed by determination of insect mortality rate. The test was repeated twice.

Culex pipiens molestus = experiment: Efficacy against Culex pipiens molestus (larvae in water); details: in vivo
Description: 0.225 ml of distilled water containing 10 Culex pipiens molestus larvae 1 day after hatching and aquarium fish food (TetraMin, Tetra Japan) were placed in a 0.3 ml polystyrene test container.
The compounds were prepared as 1% solutions using DMSO (containing 0.5% Tween 20), and further diluted to 0.01% with distilled water. 0.025 ml of the diluted chemical liquid were added to the test container containing the Culex pipiens molestus larvae followed by stirring (final compound concentration: 0.001%).
Insect mortality rates were invested 2 days after allowing to stand at 25° C. The test was repeated twice.

Cc1cc(Cl)ccc1N=CN(C)C [chlordimeform]
insect mortality rate [1]: 40%
insect mortality rate (Pseudaletia separata): 40%
insect mortality rate (Spodoptera litura): 40%

Cc1nc(N(C)C)nc(OC(=O)N(C)C)c1C [pirimicarb]
insect mortality rate (Aphis gossypii): 9%

N-{[5-(3,5-dichlorophenyl)-5-trifluoromethyl-4,5-dihydroisoxazol-3-yl]indan-1-yl}-propionic acid amide [1-6]
insect mortality rate (Culex pipiens molestus): ≥ 90%
